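Results reflect a 48-hour exposure of cells in 96-well plates to compound at five concentrations. The concentration for 50% growth inhibition is given as GI50. TGI is the concentration that stops growth completely.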
Assays:
Assay in all cases: NCI anticancer screen, dose series, 48 h
[1] = system: HCT-15 colon
[2] = system: OVCAR-5 ovarian
[3] = system: SN12C renal
[4] = system: SK-MEL-2 melanoma
[5] = system: DU-145 prostate
[6] = system: NCI-H460 lung
[7] = system: OVCAR-4 ovarian
[8] = system: SK-MEL-5 melanoma
[9] = system: HCC-2998 colon
[10] = system: HL-60(TB) leukemia

SMILES | GI50 [1] [µM] | TGI [1] [µM] | GI50 [2] [µM] | TGI [2] [µM] | GI50 [3] [µM] | TGI [3] [µM] | GI50 [4] [µM] | TGI [4] [µM] | GI50 [5] [µM] | TGI [5] [µM] | GI50 [6] [µM] | TGI [6] [µM] | GI50 [7] [µM] | TGI [7] [µM] | GI50 [8] [µM] | TGI [8] [µM] | GI50 [9] [µM] | TGI [9] [µM] | GI50 [10] [µM] | TGI [10] [µM]
CN=C(N)N/N=C(\c1ccccc1)c1ccc(Br)cc1 | 0.306 | 7.24 | 0.494 | 5.62 | 0.451 | 6.27 | 0.359 | 1.97 | 0.366 | 10.5 | 0.355 | 9.05 | 0.713 | 15.2 | 0.335 | 1.29 | 0.38 | 1.37 | 0.216 | 0.567
O=C(CCN1CCN(c2cnc3ccccc3n2)CC1)c1csc2ccccc12 | 62.6 | > 100 | > 100 | > 100 | 79.6 | > 100 | > 100 | > 100 | 29.5 | > 100 | > 100 | > 100 | 28.2 | 92.5 | 60.3 | > 100 | > 100 | > 100 | 35.2 | > 100
COc1cc(/C=C\[N+](=O)[O-])ccc1O | 1.85 | 6.03 | 3.94 | 14.5 | 2.49 | 7.74 | 2.8 | 10.4 | 2.41 | 5.93 | 3.51 | 13.7 | 3.86 | 14.1 | 1.77 | 3.24 | 1.98 | 3.63 | 2.39 | 6.31
C=C1C(=O)O[C@H]2[C@H]1CC/C(CNC(=O)c1c[nH]c3ccc(F)cc13)=C\CC[C@@]1(C)O[C@@H]21 | 0.732 | 2.21 | 1.9 | 4.82 | 1.98 | 5.42 | 1.42 | 3.09 | 1.09 | 2.35 | 3.43 | 14.8 | 3.17 | 15.2 | 2.25 | 5.56 | 1.84 | 3.44 | 2.18 | 5.95
O=C(c1ccc2ccccc2c1)c1c(C(F)(F)F)n([O-])c2cc(Cl)c(Cl)cc2[n+]1=O | 1.56 | 2.97 | 1.65 | 3.01 | 1.73 | 3.1 | 1.64 | 2.99 | 1.57 | 2.9 | 2.02 | 4.15 | 1.54 | 3.17 | 1.6 | 2.94 | 1.48 | 2.8 | 1.81 | 3.87
C=C1CCC2C(/C=C(\C)CCC1O)OC(=O)C2C (stereo not given) | > 100 | > 100 | > 100 | > 100 | > 100 | > 100 | > 100 | > 100 | > 100 | > 100 | > 100 | > 100 | > 100 | > 100 | > 100 | > 100 | > 100 | > 100 | 51.5 | > 100
